Measured values reported in ChEMBL document CHEMBL4507260 (2021).

Legend:
Details in all cases: Compound concentration 1000.0 nM
[1] = target: Serine/threonine-protein kinase 32A (Homo sapiens) (UniProt Q8WU08)
[2] = target: Serine/threonine-protein kinase Nek7 (Homo sapiens) (UniProt Q8TDX7)
[3] = test system: ALK tyrosine kinase receptor (Homo sapiens), Q9UM73 [L1196M]
[4] = target: Casein kinase I isoform alpha (Homo sapiens) (UniProt P48729)
[5] = target: Serine/threonine-protein kinase 36 (Homo sapiens) (UniProt Q9NRP7)
[6] = target: SRSF protein kinase 2 (Homo sapiens) (UniProt P78362)
[7] = target: Muscle, skeletal receptor tyrosine-protein kinase (Homo sapiens) (UniProt O15146)
[8] = target: Serine/threonine-protein kinase DCLK3 (Homo sapiens) (UniProt Q9C098)
[9] = target: Serine/threonine-protein kinase RIO2 (Homo sapiens) (UniProt Q9BVS4)
[10] = target: Cyclin-dependent kinase 16 (Homo sapiens) (UniProt Q00536)
[11] = target: Serine/threonine-protein kinase B-raf (Homo sapiens) (UniProt P15056)
[12] = target: Serine/threonine-protein kinase PLK2 (Homo sapiens) (UniProt Q9NYY3)
[13] = target: Glycogen synthase kinase-3 alpha (Homo sapiens) (UniProt P49840)
[14] = target: Tyrosine-protein kinase Mer (Homo sapiens) (UniProt Q12866)
[15] = target: Phosphatidylinositol 3-kinase C2 domain-containing subunit gamma (Homo sapiens) (UniProt O75747)
[16] = target: Receptor-type tyrosine-protein kinase FLT3 (Homo sapiens) (UniProt P36888)
[17] = target: Phosphatidylinositol 4-phosphate 5-kinase type-1 gamma (Homo sapiens) (UniProt O60331)
[18] = target: Ephrin type-A receptor 5 (Homo sapiens) (UniProt P54756)
[19] = target: Serine/threonine-protein kinase 35 (Homo sapiens) (UniProt Q8TDR2)
[20] = target: Rhodopsin kinase GRK7 (Homo sapiens) (UniProt Q8WTQ7)
[21] = target: Mitogen-activated protein kinase kinase kinase 15 (Homo sapiens) (UniProt Q6ZN16)
[22] = target: Eukaryotic translation initiation factor 2-alpha kinase 1 (Homo sapiens) (UniProt Q9BQI3)
[23] = target: Activin receptor type-1 (Homo sapiens) (UniProt Q04771)
[24] = target: Serine/threonine-protein kinase 10 (Homo sapiens) (UniProt O94804)
[25] = target: Leucine-rich repeat serine/threonine-protein kinase 2 (Homo sapiens) (UniProt Q5S007)
[26] = target: Calcium/calmodulin-dependent protein kinase type IV (Homo sapiens) (UniProt Q16566)
[27] = target: Insulin receptor-related protein (Homo sapiens) (UniProt P14616)
[28] = target: 3-phosphoinositide-dependent protein kinase 1 (Homo sapiens) (UniProt O15530)
[29] = target: BMP-2-inducible protein kinase (Homo sapiens) (UniProt Q9NSY1)
[30] = target: Serine/threonine-protein kinase BRSK1 (Homo sapiens) (UniProt Q8TDC3)
[31] = target: Serine/threonine-protein kinase D2 (Homo sapiens) (UniProt Q9BZL6)
[32] = target: Mast/stem cell growth factor receptor Kit (Homo sapiens) (UniProt P10721)
[33] = test system: Receptor-type tyrosine-protein kinase FLT3 (Homo sapiens), P36888 [UNDEFINED MUTATION]
[34] = target: Mast/stem cell growth factor receptor Kit (Homo sapiens) (UniProt P10721); remark: listed apart in the source
[35] = target: Serine/threonine-protein kinase mTOR (Homo sapiens) (UniProt P42345)
[36] = target: Serine/threonine-protein kinase Nek2 (Homo sapiens) (UniProt P51955)
[37] = target: Calcium-dependent protein kinase 1 (Plasmodium falciparum) (UniProt P62344)
[38] = target: G protein-coupled receptor kinase 3 (Homo sapiens) (UniProt P35626)
[39] = target: MAP/microtubule affinity-regulating kinase 4 (Homo sapiens) (UniProt Q96L34)
[40] = target: Myotonin-protein kinase (Homo sapiens) (UniProt Q09013)
[41] = target: Serine/threonine-protein kinase MARK1 (Homo sapiens) (UniProt Q9P0L2)
[42] = target: Tyrosine-protein kinase Fer (Homo sapiens) (UniProt P16591)
[43] = target: Mitogen-activated protein kinase kinase kinase 5 (Homo sapiens) (UniProt Q99683)
[44] = target: NUAK family SNF1-like kinase 1 (Homo sapiens) (UniProt O60285)
[45] = target: Leukocyte tyrosine kinase receptor (Homo sapiens) (UniProt P29376)

Chain of Mast/stem cell growth factor receptor Kit (Homo sapiens) (P10721 whole entry): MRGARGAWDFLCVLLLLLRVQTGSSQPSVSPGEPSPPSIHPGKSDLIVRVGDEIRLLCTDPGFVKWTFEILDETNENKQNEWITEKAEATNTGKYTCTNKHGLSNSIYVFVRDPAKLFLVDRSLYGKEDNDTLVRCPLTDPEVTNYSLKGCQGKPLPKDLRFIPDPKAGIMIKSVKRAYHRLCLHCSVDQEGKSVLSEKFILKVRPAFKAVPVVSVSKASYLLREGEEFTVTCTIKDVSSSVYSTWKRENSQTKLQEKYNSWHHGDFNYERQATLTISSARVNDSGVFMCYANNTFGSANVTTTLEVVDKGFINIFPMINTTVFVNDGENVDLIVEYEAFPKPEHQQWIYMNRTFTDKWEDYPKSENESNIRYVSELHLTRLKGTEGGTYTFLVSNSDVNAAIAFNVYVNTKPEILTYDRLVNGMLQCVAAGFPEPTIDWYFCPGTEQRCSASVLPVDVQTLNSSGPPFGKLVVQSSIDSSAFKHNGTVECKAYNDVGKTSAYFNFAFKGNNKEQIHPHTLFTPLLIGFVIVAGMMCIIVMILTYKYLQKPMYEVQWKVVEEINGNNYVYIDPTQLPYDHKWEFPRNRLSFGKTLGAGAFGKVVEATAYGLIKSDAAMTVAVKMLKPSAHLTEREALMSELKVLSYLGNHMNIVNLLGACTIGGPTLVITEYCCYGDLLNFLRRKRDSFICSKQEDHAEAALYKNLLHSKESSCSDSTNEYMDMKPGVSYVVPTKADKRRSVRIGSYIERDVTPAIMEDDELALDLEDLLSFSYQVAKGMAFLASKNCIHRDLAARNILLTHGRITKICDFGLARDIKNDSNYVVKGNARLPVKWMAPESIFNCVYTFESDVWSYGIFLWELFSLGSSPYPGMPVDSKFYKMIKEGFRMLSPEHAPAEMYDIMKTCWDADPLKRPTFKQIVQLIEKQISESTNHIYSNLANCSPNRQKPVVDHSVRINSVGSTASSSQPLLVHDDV
Chain of Calcium-dependent protein kinase 1 (Plasmodium falciparum) (P62344 2-524 limits assumed): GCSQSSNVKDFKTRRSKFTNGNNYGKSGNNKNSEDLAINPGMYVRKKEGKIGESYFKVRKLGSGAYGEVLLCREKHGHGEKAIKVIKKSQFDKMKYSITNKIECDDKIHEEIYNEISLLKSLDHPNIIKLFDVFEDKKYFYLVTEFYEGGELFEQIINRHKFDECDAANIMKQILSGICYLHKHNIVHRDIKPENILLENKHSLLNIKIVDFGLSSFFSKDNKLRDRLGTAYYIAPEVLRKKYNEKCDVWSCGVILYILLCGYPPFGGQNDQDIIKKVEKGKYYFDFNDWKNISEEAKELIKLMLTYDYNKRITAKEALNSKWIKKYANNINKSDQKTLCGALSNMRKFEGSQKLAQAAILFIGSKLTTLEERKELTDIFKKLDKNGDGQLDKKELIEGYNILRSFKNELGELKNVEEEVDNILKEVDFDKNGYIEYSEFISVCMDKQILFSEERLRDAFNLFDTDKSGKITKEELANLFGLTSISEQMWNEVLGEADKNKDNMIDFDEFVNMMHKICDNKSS
Chain of Serine/threonine-protein kinase Nek7 (Homo sapiens) (Q8TDX7 whole entry, looked up): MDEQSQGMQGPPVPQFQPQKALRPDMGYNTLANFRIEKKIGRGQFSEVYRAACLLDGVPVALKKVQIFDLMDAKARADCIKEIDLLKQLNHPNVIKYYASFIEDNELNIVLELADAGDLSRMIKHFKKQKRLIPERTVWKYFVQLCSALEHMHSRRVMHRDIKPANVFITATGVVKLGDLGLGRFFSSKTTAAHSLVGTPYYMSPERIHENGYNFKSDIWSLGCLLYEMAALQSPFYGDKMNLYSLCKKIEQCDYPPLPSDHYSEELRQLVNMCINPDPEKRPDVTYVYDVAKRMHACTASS
Chain of Casein kinase I isoform alpha (Homo sapiens) (P48729 2-337 limits assumed): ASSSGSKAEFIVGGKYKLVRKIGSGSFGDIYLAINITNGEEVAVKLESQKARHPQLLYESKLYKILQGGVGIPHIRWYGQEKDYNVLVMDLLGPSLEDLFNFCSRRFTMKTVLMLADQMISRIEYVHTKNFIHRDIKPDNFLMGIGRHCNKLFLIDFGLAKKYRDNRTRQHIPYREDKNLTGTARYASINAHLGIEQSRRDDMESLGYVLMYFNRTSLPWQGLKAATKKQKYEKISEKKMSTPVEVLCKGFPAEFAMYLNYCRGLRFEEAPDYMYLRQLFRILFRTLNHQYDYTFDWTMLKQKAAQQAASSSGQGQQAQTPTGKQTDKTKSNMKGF
Chain of Serine/threonine-protein kinase 36 (Homo sapiens) (Q9NRP7 whole entry): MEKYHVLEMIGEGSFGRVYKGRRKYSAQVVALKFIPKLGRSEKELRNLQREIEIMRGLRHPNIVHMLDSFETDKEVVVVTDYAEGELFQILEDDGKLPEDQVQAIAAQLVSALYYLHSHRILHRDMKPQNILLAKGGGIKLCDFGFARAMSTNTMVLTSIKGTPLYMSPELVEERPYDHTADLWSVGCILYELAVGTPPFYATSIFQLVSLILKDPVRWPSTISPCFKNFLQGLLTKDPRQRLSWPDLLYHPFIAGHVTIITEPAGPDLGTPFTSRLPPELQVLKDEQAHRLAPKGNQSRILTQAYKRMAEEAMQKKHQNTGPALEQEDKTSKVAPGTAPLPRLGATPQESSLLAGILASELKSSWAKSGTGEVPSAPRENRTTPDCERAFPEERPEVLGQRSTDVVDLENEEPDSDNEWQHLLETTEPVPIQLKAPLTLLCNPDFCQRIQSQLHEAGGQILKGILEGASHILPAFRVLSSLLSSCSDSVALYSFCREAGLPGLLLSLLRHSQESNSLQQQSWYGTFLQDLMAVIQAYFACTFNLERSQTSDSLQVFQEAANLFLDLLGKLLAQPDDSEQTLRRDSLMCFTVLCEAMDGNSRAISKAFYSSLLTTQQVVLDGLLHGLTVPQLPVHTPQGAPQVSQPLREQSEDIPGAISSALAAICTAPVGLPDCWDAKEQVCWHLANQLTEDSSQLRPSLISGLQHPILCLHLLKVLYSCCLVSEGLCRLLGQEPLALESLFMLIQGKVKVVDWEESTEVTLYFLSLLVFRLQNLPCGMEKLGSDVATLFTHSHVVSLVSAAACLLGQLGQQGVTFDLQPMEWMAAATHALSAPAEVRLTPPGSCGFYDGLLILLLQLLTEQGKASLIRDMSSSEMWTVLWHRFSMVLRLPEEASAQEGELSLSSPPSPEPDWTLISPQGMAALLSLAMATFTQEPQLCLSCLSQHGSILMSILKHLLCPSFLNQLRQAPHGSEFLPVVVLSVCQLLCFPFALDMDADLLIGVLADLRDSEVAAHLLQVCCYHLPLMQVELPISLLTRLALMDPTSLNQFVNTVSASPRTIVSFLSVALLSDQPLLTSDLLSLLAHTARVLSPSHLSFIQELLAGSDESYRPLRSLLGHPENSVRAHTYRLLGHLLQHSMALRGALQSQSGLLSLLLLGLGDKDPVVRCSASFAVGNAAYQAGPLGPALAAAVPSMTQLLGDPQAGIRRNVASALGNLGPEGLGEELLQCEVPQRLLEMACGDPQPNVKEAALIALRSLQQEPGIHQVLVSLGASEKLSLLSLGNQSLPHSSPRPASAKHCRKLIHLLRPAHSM
Chain of Receptor-type tyrosine-protein kinase FLT3 (Homo sapiens), P36888 [UNDEFINED MUTATION] (P36888 whole entry, looked up, change not shown): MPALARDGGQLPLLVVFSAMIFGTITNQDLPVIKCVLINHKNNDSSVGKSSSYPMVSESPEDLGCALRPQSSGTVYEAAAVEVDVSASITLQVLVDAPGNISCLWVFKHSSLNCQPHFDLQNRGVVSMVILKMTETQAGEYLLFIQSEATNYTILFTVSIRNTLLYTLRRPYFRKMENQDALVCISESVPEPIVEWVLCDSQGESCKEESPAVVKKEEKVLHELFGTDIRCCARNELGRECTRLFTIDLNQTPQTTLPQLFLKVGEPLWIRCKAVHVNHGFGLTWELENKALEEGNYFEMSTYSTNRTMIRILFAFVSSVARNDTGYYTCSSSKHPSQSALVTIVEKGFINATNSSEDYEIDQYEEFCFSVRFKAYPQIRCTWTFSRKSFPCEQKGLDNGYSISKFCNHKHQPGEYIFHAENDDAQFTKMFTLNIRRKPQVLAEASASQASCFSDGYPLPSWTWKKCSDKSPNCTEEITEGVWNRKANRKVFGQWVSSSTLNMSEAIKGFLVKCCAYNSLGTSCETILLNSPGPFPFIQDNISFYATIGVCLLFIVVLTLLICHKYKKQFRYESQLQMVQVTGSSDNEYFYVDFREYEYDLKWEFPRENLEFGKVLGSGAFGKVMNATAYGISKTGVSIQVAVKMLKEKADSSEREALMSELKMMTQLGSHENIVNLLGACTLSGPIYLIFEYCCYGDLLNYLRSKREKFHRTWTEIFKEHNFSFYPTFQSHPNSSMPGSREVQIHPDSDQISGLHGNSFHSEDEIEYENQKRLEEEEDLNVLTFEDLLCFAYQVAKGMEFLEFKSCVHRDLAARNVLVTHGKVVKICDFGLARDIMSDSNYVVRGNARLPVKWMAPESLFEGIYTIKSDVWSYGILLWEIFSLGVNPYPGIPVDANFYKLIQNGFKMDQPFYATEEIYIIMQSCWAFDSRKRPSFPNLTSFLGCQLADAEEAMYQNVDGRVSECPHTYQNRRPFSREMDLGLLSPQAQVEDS
Chain of Receptor-type tyrosine-protein kinase FLT3 (Homo sapiens) (P36888 whole entry): as the sequence (P36888 whole entry, looked up, change not shown) above
Chain of Rhodopsin kinase GRK7 (Homo sapiens) (Q8WTQ7 whole entry): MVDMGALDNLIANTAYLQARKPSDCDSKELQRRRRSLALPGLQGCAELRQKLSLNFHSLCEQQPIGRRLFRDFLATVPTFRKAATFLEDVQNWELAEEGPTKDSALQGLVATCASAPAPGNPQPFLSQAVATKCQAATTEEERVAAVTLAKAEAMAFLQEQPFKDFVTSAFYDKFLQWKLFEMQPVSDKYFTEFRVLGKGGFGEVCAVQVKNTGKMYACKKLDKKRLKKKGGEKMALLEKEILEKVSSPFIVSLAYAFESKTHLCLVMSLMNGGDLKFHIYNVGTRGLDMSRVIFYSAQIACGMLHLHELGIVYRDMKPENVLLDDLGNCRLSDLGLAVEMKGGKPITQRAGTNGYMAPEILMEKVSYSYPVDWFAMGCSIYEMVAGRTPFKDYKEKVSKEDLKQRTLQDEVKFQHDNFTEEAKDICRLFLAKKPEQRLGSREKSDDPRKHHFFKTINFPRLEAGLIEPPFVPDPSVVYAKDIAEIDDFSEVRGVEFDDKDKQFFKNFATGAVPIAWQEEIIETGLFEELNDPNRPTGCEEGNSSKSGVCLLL

SMILES: c1ccc(N2CCN(Cc3nc4ccccc4[nH]3)CC2)nc1 [ABT-724]
- residual activity [1]: 100%
- residual activity [2]: 100%
- residual activity [3]: 97%
- residual activity [4]: 93%
- residual activity [5]: 84%
- residual activity [6]: 100%
- residual activity [7]: 100%
- residual activity [8]: 93%
- residual activity [9]: 100%
- residual activity [10]: 100%
- residual activity [11]: 100%
- residual activity [12]: 100%
- residual activity [13]: 66%
- residual activity [14]: 90%
- residual activity [15]: 100%
- residual activity [16]: 100%
- residual activity [17]: 93%
- residual activity [18]: 100%
- residual activity [19]: 100%
- residual activity [20]: 100%
- residual activity [21]: 100%
- residual activity [22]: 100%
- residual activity [23]: 100%
- residual activity [24]: 100%
- residual activity [25]: 99%
- residual activity [26]: 88%
- residual activity [27]: 97%
- residual activity [28]: 89%
- residual activity [29]: 100%
- residual activity [30]: 91%
- residual activity [31]: 91%
- residual activity [32]: 100%
- residual activity [33]: 100%
- residual activity [34]: 100%
- residual activity [35]: 100%
- residual activity [36]: 100%
- residual activity [37]: 99%
- residual activity [38]: 67%
- residual activity [39]: 100%
- residual activity [40]: 100%
- residual activity [41]: 100%
- residual activity [42]: 100%
- residual activity [43]: 93%
- residual activity [44]: 89%
- residual activity [45]: 100%

SMILES: CSc1cccnc1N1CCN(Cc2nc3ccccc3[nH]2)CC1 [A-769]
- residual activity [1]: 100%
- residual activity [2]: 100%
- residual activity [3]: 100%
- residual activity [4]: 72%
- residual activity [5]: 97%
- residual activity [6]: 59%
- residual activity [7]: 100%
- residual activity [8]: 100%
- residual activity [9]: 100%
- residual activity [10]: 81%
- residual activity [11]: 89%
- residual activity [12]: 71%
- residual activity [13]: 100%
- residual activity [14]: 80%
- residual activity [15]: 95%
- residual activity [16]: 91%
- residual activity [17]: 100%
- residual activity [18]: 100%
- residual activity [19]: 100%
- residual activity [20]: 87%
- residual activity [21]: 67%
- residual activity [22]: 93%
- residual activity [23]: 100%
- residual activity [24]: 87%
- residual activity [25]: 97%
- residual activity [26]: 100%
- residual activity [27]: 94%
- residual activity [28]: 99%
- residual activity [29]: 100%
- residual activity [30]: 100%
- residual activity [31]: 100%
- residual activity [32]: 72%
- residual activity [33]: 73%
- residual activity [34]: 100%
- residual activity [35]: 100%
- residual activity [36]: 96%
- residual activity [37]: 89%
- residual activity [38]: 31%
- residual activity [39]: 100%
- residual activity [40]: 81%
- residual activity [41]: 100%
- residual activity [42]: 100%
- residual activity [43]: 98%
- residual activity [44]: 100%
- residual activity [45]: 89%
